In US8633224B2, “Hemiasterlin derivatives and uses thereof in the treatment of cancer” (Eisai Co., Ltd., priority 2002, dated 2014):

Columns and labels:
[1] = system: human cancer cells; assay: in vitro and in vivo screening panel (growth inhibition, MDR, cytotoxicity, mouse serum stability, mitotic block reversibility, tumor xenograft); conditions: properties (i)-(vii) of b364/b365
Protocol: In certain embodiments, compounds of the invention were tested for in vitro and in vivo activity. Screening methods included standard in vitro cell growth inhibition assays using a panel of human cancer cell lines, a U937 (ATCC accession number CRL 1593) mitotic block reversibility assay, mouse serum stability assay, MDR assay, and cytotoxicity assay. In certain other embodiments, compounds of the invention were evaluated in tumor xenograft in vivo growth inhibition assays.
Cultured human cancer cells (including breast, prostate, colon, lung, leukemia, lymphoma and other) were plated in 96-well plates and grown in the continuous presence of test compounds for 72 or 96 hours. The human cell lines used in this cell growth inhibition assay, include, but are not limited to, the following solid tumor cell lines and non-solid tumor cell lines: DLD-1 colon cancer cells (ATCC accession number CCL-221), DU 145 prostate cancer cells (ATCC accession number HTB-81), H460 non small cell lung cancer, HCT-15 colon cancer cells (ATCC accession number CCL-225), HEL erythroleukemia cells, HL-60 promyelocytic leukemia cells (ATCC accession number CCL-240), K562 leukemia (ATCC accession number CCL-243), LOX melanoma, MDA-MB-435 breast cancer cells, U937 lymphoma cells (ATCC accession number CRL 1593), PANC-1 pancreatic cancer (ATCC accession number CRL-1469), HCC-2998 colon cancer (NCI-Frederick Cancer DCTD Tumor/Cell Line Repository), HCT 116 colon cancer (ATCC accession number CCL-247), HT-29 colon cancer (ATCC accession number HTB-38), LoVo colon cancer (ATCC accession number CCL-229), SW-480 colon cancer (ATCC accession number CCL-228), SW-620 colon cancer (ATCC accession number CCL-227) and COLO-205 colon cancer (ATCC accession number CCL-222). For monolayer cultures, growth was assessed using modifications (Amin et al, Cancer Res., 47: 6040-6045, 1987) of a methylene blue-based microculture assay (Finlay et al, Anal. Biochem., 139: 272-277, 1984). Absorbances at 620 and 405 nm were measured on a Titertek Multiscan MCC/340 plate reader and absorbances at 405 nm were subtracted from absorbances at 620 nm. For suspension cultures, growth was assessed using a 3-(4,5-dimethylthiazol-2-yl)-2,5-diphenyl tetrazolium bromide-based assay (Mosmann et al, J. Immunol. Methods, 65: 55-63, 1983) modified as follows. After 4 days of incubation with test compounds, sterile-filtered 3-(4,5-dimethylthiazol-2-yl)-2,5-diphenyl tetrazolium bromide was added to each well (final concentration, 0.5 mg/ml), and plates were incubated at 37° C. for 4 h. Acid-isopropanol (0.1 N HCl in isopropanol, […]) was then added to each well, and the resultant formazan crystals were dis-solved by gentle mixing. Absorbances at 540 nm were measured on a Titertek Multiscan MCC/340 plate reader.
Briefly, U937 (ATCC accession number […]) were exposed to various concentration of compounds for 12 hours. The compounds were washed away and the cells were allowed to recover for an additional 10 hours. The cells were collected by centrifugation and fixed overnight in 70% ethanol. The cells were washed in PBS, incubated with RNase A and stained with propidium iodide. Single channel flow cytometry was performed on a Becton Dickinson FACScan; the collection and analysis of data were performed using Becton Dickinson CELLQuest software. Doublet events were eliminated from analyses by proper gating on FL2-W/FL2-A primary plots before histogram analysis of DNA content (measured as FL2-A).
This is a modification of the standard cell growth inhibition assays described above. Two cultured human cancer cell lines were used: human uterine sarcoma MDR negative MES-SA cells (ATCC accession number CRL-1976) and human uterine sarcoma MDR-positive MES-SA/Dx5 cells (ATCC accession number CRL-1977). Cells were plated in a 96-well microtiter plates at a density of 7500 cells/well. The cells were incubated in the presence or absence of test compounds for 96 hours.

[2] = system: human lung carcinoma, human colon carcinoma and human melanoma; conditions: cited from earlier work

SMILES | desired properties (growth inhibition IC50, resistance ratio, cytotoxicity in non-dividing normal cells, mouse serum stability, mitotic block reversibility, tumor regression, tumor growth inhibition) [1] | antitumor activity against several cell lines [2]
CC(C)OC(=O)[C@@H]1CCCN1C(=O)[C@@H]1CCCN1C[C@H](C(C)C)N(C)C(=O)[C@@H](NC(=O)[C@H]1CCCCN1C)C(C)(C)C [ER-807904] | exhibiting desired properties | 
CN[C@H](C(=O)N[C@H](C(=O)N(C)[C@H](/C=C(\C)C(=O)N1CCC[C@H]1C(=O)OC)C(C)C)C(C)(C)C)C(C)(C)c1ccccc1 [ER-805736] | exhibiting desired properties | 
C/C(=C\[C@H](C(C)C)N(C)C(=O)[C@@H](NC(=O)[C@H]1CCCCN1C(C)C)C(C)(C)C)C(=O)O [ER-807974] | exhibiting desired properties | 
CCC(CC)(NC)C(=O)N[C@H](C(=O)N(C)[C@H](/C=C(\C)C(=O)O)C(C)C)C(C)(C)C [ER-807850] | exhibiting desired properties | 
C/C(=C\[C@H](C(C)C)N(C)C(=O)[C@@H](NC(=O)[C@H]1CCCCN1C(C)C(C)C)C(C)(C)C)C(=O)O (single isomer, unassigned) [ER-808662] | exhibiting desired properties | 
CCC(C)N1CCCCC1C(=O)NC(C(=O)N(C)[C@H](/C=C(\C)C(=O)O)C(C)C)C(C)(C)C (stereo in doubt) [ER-808368] | exhibiting desired properties | 
CN[C@H](C(=O)N[C@H](C(=O)N(C)[C@H](CN1CCC[C@H]1C(=O)N1CCC[C@H]1C(N)=O)C(C)C)C(C)(C)C)C(C)(C)c1ccccc1 [ER-807328] | exhibiting desired properties | 
CN[C@H](C(=O)N[C@H](C(=O)N(C)[C@H](/C=C(\C)C(=O)O)C(C)C)C(C)(C)C)C(C)(C)c1cn(C)c2ccccc12 [Hemiasterlin] |  | exhibited antitumor activity
CCC(C)N1CCCCC1C(=O)NC(C(=O)N(C)[C@H](/C=C(\C)C(=O)O)C(C)C)C(C)C (stereo in doubt) [ER-808824] | exhibiting desired properties | 
CN[C@H](C(=O)N[C@H](C(=O)N(C)[C@H](/C=C(\C)C(=O)O)C(C)C)C(C)(C)C)C(C)(C)c1ccc(OCc2ccccc2)cc1 [ER-805913] | exhibiting desired properties | 
CN[C@H](C(=O)N[C@H](C(=O)N(C)[C@H](CN(C)CC(=O)N1CCC[C@H]1C(=O)OC)C(C)C)C(C)(C)C)C(C)(C)c1ccccc1 [ER-806925] | exhibiting desired properties | 
C/C(=C\[C@H](C(C)C)N(C)C(=O)[C@@H](NC(=O)[C@@H]1CCCCN1C)C(C)(C)C)C(=O)O [ER-807102] | exhibiting desired properties | 
